# Assays:
# Type in all cases: functional
# Nephotettix cincticeps [1] = experiment: Insecticidal activity against Nephotettix cincticeps (green rice leafhopper) assessed as lethality at 1 to 10 ppm
# Laodelphax striatellus [2] = experiment: Insecticidal activity against Laodelphax striatella (small brown planthopper) assessed as lethality at 10 to 100 ppm
# Nephotettix cincticeps [3] = experiment: Insecticidal activity against Nephotettix cincticeps (green rice leafhopper) assessed as lethality at >1000 ppm
# Nephotettix cincticeps [4] = experiment: Insecticidal activity against Nephotettix cincticeps (green rice leafhopper) assessed as lethality at 100 to 1000 ppm
# Nephotettix cincticeps [5] = experiment: Insecticidal activity against Nephotettix cincticeps (green rice leafhopper) assessed as lethality at 0.1 to 1 ppm
# Laodelphax striatellus [6] = experiment: Insecticidal activity against Laodelphax striatella (small brown planthopper) assessed as lethality at 0.1 to 1 ppm
# Nephotettix cincticeps [7] = experiment: Insecticidal activity against Nephotettix cincticeps (green rice leafhopper) assessed as lethality at 10 to 100 ppm
# Laodelphax striatellus [8] = experiment: Insecticidal activity against Laodelphax striatella (small brown planthopper) assessed as lethality at 100 to 1000 ppm
# Laodelphax striatellus [9] = experiment: Insecticidal activity against Laodelphax striatella (small brown planthopper) assessed as lethality at 1 to 10 ppm
# Laodelphax striatellus [10] = experiment: Insecticidal activity against Laodelphax striatella (small brown planthopper) assessed as lethality at >1000 ppm
structure (smiles),measurement,setting,value
O=[N+]([O-])/N=C1\NCCN1CC1CCOC1 (stereo not given),Activity,Nephotettix cincticeps [1],70%
same,Activity,Laodelphax striatellus [2],70%
CN/C(=C\[N+](=O)[O-])CCC1CCOC1 (stereo not given),Activity,Nephotettix cincticeps [3],70%
CC/C(=C\[N+](=O)[O-])N(C)CC1CCOC1 (stereo not given),Activity,Nephotettix cincticeps [3],70%
N/C(=N\[N+](=O)[O-])NCC1CCOC1 (stereo not given),Activity,Nephotettix cincticeps [4],70%
CN/C(=C\[N+](=O)[O-])NCC1CCOC1 (stereo not given),Activity,Nephotettix cincticeps [5],70%
same,Activity,Laodelphax striatellus [6],70%
CCN/C(=N\[N+](=O)[O-])NCC1CCOC1 (stereo not given),Activity,Nephotettix cincticeps [7],70%
same,Activity,Laodelphax striatellus [8],70%
CN(C)/C(=N\[N+](=O)[O-])N(C)CC1CCOC1 (stereo not given),Activity,Nephotettix cincticeps [7],70%
same,Activity,Laodelphax striatellus [2],70%
CN/C(=N\[N+](=O)[O-])N(C)CC1CCOC1 (stereo not given),Activity,Nephotettix cincticeps [1],70%
same,Activity,Laodelphax striatellus [9],70%
CN(C(=O)c1ccccc1)/C(=N\[N+](=O)[O-])N(CC1CCOC1)C(=O)c1ccccc1 (stereo not given),Activity,Nephotettix cincticeps [5],70%
same,Activity,Laodelphax striatellus [9],70%
CC(=O)N(C)/C(=N\[N+](=O)[O-])N(CC1CCOC1)C(C)=O (stereo not given),Activity,Nephotettix cincticeps [5],70%
same,Activity,Laodelphax striatellus [6],70%
CN/C(=N\[N+](=O)[O-])NCC1(C)CCOC1 (stereo not given),Activity,Nephotettix cincticeps [3],70%
same,Activity,Laodelphax striatellus [10],70%
CN/C(=N\[N+](=O)[O-])NCC1CCCOC1 (stereo not given),Activity,Nephotettix cincticeps [7],70%
same,Activity,Laodelphax striatellus [8],70%
CCN(CC1CCOC1)/C(=C/[N+](=O)[O-])NC (stereo not given),Activity,Nephotettix cincticeps [1],70%
same,Activity,Laodelphax striatellus [2],70%
N#C/N=C1\SCCCN1CC1CCOC1 (stereo not given),Activity,Nephotettix cincticeps [7],70%
same,Activity,Laodelphax striatellus [2],70%
CN1COCN(CC2CCOC2)/C1=N/[N+](=O)[O-] (stereo not given),Activity,Nephotettix cincticeps [4],70%
same,Activity,Laodelphax striatellus [8],70%
C/C(=N\C#N)N(C)CC1CCOC1 (stereo not given),Activity,Nephotettix cincticeps [4],70%
same,Activity,Laodelphax striatellus [8],70%
O=[N+]([O-])/N=C1\NCCN1Cc1ccoc1,Activity,Nephotettix cincticeps [7],70%
same,Activity,Laodelphax striatellus [2],70%
O=[N+]([O-])/N=C1\NCCN1CCC1CCCCO1 (stereo not given),Activity,Nephotettix cincticeps [4],70%
same,Activity,Laodelphax striatellus [8],70%
O=[N+]([O-])/N=C1\NCCN1CCC1CCCO1 (stereo not given),Activity,Nephotettix cincticeps [4],70%
same,Activity,Laodelphax striatellus [8],70%
O=C(OCCCN1CCN/C1=C\[N+](=O)[O-])c1ccccc1,Activity,Nephotettix cincticeps [4],70%
same,Activity,Laodelphax striatellus [8],70%
COCCCN1CCN/C1=C\[N+](=O)[O-],Activity,Nephotettix cincticeps [7],70%
same,Activity,Laodelphax striatellus [8],70%
CC(=O)OCCCN1CCN/C1=C\[N+](=O)[O-],Activity,Nephotettix cincticeps [4],70%
same,Activity,Laodelphax striatellus [8],70%
O=C(OCCN1CCN/C1=C\[N+](=O)[O-])c1ccccc1,Activity,Nephotettix cincticeps [3],70%
same,Activity,Laodelphax striatellus [8],70%
O=[N+]([O-])/C=C1\NCCN1CCCO,Activity,Nephotettix cincticeps [4],70%
same,Activity,Laodelphax striatellus [8],70%
O=[N+]([O-])/C=C1\NCCN1CCO,Activity,Nephotettix cincticeps [3],70%
same,Activity,Laodelphax striatellus [8],70%
COCCN1CCN/C1=C\[N+](=O)[O-],Activity,Nephotettix cincticeps [7],70%
same,Activity,Laodelphax striatellus [8],70%
CC(=O)OCCN1CCN/C1=C\[N+](=O)[O-],Activity,Nephotettix cincticeps [3],70%
same,Activity,Laodelphax striatellus [8],70%
CN/C(=N\[N+](=O)[O-])NCC1CCOC1C (mixture of isomers),Activity,Nephotettix cincticeps [3],70%
same,Activity,Laodelphax striatellus [10],70%
CN/C(=N\[N+](=O)[O-])NCC1COC(C)C1 (mixture of isomers),Activity,Nephotettix cincticeps [1],70%
same,Activity,Laodelphax striatellus [2],70%
CCC1COCC1CN/C(=N/[N+](=O)[O-])NC (mixture of isomers),Activity,Nephotettix cincticeps [3],70%
same,Activity,Laodelphax striatellus [10],70%
CN/C(=N\[N+](=O)[O-])NCC1CC2CCC1O2 (mixture of isomers),Activity,Nephotettix cincticeps [3],70%
same,Activity,Laodelphax striatellus [10],70%
CN/C(=N\[N+](=O)[O-])NCC1COCC1C (mixture of isomers),Activity,Nephotettix cincticeps [1],70%
same,Activity,Laodelphax striatellus [2],70%
CN/C(=N/CC1CCOC1)N[N+](=O)[O-] (stereo not given) [DINOTEFURAN],Activity,Nephotettix cincticeps [5],70%
same,Activity,Laodelphax striatellus [6],70%
O=[N+]([O-])/N=C1\NCCN1Cc1ccc(Cl)nc1 [IMIDACLOPRID],Activity,Nephotettix cincticeps [5],70%
same,Activity,Laodelphax striatellus [6],70%
